Laboratory results: paper PMC11876601 (Molecular Systems Biology, 2025)

What was measured:
AP2A1 = test system: AP2A1; parameters: method as in Klaeger et al. (2017); settings: AP2A1, 4 cell line mix lysate, Kinobeads y, ref Klaeger et al. (2017); cited from earlier work
PIK3C3 ; Q8NEB9 = PIK3C3 ; Q8NEB9 (Homo sapiens, UniProt Q8NEB9); assay: biochemical; parameters: species or system AsPC-1; Kinobeads competition pulldown in AsPC-1 lysate with LC-MS/MS label-free quantification; apparent Kd
Description: (§1) This was followed by incubation with Kinobeads ε (17.5 µl of settled beads) for 30 min at 4 °C to enrich kinases. […] Enriched proteins were reduced with 50 mM DTT in 8 M urea, 40 mM Tris-HCl, pH 7.4 for 30 min at room temperature, and alkylated with 55 mM chloroacetamide. After reducing the urea concentration to 1–2 M, proteins were digested with trypsin at 37 °C for 16 h. Subsequently, eluted peptides were desalted using SepPak tC18 µElution plates (Waters), freeze-dried by vacuum centrifugation, and stored at −20 °C. Proteins were filtered by potential contaminants, reversed hits and proteins identified only by site. Residual binding of proteins was calculated from LFQ intensities as the ratio between drug doses and vehicle. […] Only kinases quantified with at least 4 unique peptides in the vehicle experiment were considered. Potential targets were further curated through manual inspection of dose-dependent reduction in MS/MS and unique peptide counts.

[1] = biological target: PIP4K2C ; Q8TBX8;Q8TBX8-2;Q8TBX8-3 (Homo sapiens, UniProt Q8TBX8); assay: biochemical; parameters: species or system AsPC-1; Kinobeads competition pulldown in AsPC-1 lysate with LC-MS/MS label-free quantification; apparent Kd
Description: as §1

[2] = biological target: several subunits of CSNK2; assay: Kinobeads competition pulldown in AsPC-1 lysate; assay type: binding, human; settings: read-out: KDapp
Description: This was followed by incubation with Kinobeads ε (17.5 µl of settled beads) for 30 min at 4 °C to enrich kinases. […] Enriched proteins were reduced with 50 mM DTT in 8 M urea, 40 mM Tris-HCl, pH 7.4 for 30 min at room temperature, and alkylated with 55 mM chloroacetamide. After reducing the urea concentration to 1–2 M, proteins were digested with trypsin at 37 °C for 16 h. Subsequently, eluted peptides were desalted using SepPak tC18 µElution plates (Waters), freeze-dried by vacuum centrifugation, and stored at −20 °C.
For LC-MS/MS, dried peptides were reconstituted in 0.1% formic acid and analyzed on a Dionex Ultimate3000 nano HPLC (Thermo Scientific) coupled to an Orbitrap Fusion Tribrid mass spectrometer (Thermo Scientific), which was run in data-dependent mode. […]
Oxidized methionine and N-terminal acetylation were set as variable modification, and cysteine carbamidomethylation was set as fixed modification. Label-free quantification (LFQ) and match-between-runs were enabled. […]
Proteins were filtered by potential contaminants, reversed hits and proteins identified only by site. Residual binding of proteins was calculated from LFQ intensities as the ratio between drug doses and vehicle. […] Only kinases quantified with at least 4 unique peptides in the vehicle experiment were considered. […]

[3] = biological target: ADCK1 ; Q86TW2;Q86TW2-2;Q86TW2-3 (Homo sapiens, UniProt Q86TW2); assay: biochemical; parameters: species or system AsPC-1; Kinobeads competition pulldown in AsPC-1 lysate with LC-MS/MS label-free quantification; apparent Kd
Chain of ADCK1 ; Q86TW2;Q86TW2-2;Q86TW2-3 (Q86TW2 whole entry): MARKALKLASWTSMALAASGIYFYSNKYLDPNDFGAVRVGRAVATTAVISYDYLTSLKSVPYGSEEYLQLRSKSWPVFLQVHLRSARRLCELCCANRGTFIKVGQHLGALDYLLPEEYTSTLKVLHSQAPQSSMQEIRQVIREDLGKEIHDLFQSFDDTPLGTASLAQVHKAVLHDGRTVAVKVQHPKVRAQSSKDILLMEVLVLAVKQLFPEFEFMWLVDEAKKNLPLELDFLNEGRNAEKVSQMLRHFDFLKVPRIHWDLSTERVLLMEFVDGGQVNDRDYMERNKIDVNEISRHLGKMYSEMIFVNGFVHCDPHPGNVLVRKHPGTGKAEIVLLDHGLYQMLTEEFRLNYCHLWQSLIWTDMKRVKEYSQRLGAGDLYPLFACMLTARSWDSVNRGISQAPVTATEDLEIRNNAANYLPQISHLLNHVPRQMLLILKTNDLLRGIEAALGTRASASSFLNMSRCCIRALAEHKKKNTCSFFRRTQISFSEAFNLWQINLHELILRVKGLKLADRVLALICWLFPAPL
Description: as §1

AXL ; P30530-2;P30530 = AXL ; P30530-2;P30530 (Homo sapiens, UniProt P30530); assay: biochemical; parameters: species or system AsPC-1; Kinobeads competition pulldown in AsPC-1 lysate with LC-MS/MS label-free quantification; apparent Kd
Chain of AXL ; P30530-2;P30530 (P30530 whole entry): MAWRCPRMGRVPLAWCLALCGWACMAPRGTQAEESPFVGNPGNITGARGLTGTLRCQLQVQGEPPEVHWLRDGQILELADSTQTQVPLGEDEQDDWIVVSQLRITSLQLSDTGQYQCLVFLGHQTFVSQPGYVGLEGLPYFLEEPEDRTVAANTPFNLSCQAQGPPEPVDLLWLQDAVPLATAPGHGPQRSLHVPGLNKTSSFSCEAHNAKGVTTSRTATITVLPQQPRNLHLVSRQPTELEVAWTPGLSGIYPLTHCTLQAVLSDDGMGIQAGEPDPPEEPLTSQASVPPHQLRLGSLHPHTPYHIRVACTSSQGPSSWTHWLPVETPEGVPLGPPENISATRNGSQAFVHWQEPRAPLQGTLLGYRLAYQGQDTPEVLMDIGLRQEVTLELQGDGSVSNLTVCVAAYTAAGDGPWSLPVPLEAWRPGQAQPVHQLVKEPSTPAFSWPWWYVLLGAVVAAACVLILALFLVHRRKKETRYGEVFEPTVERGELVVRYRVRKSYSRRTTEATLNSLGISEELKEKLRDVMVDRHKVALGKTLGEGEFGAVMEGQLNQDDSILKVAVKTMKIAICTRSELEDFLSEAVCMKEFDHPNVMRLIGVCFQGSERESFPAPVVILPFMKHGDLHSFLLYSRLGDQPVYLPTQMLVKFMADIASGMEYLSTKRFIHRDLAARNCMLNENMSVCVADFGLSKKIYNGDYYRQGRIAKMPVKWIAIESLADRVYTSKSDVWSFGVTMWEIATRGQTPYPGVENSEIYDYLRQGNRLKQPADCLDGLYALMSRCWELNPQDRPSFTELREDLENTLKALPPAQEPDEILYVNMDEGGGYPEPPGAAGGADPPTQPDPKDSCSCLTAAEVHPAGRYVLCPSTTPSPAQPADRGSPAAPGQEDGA
Description: as §1

[4] = biological target: CDC42BPA ; Q5VT25-5;Q5VT25-4;Q5VT25;Q5VT25-2;Q5VT25-6;Q5VT25-3 (Homo sapiens, UniProt Q5VT25); assay: biochemical; parameters: species or system AsPC-1; Kinobeads competition pulldown in AsPC-1 lysate with LC-MS/MS label-free quantification; apparent Kd
Chain of CDC42BPA ; Q5VT25-5;Q5VT25-4;Q5VT25;Q5VT25-2;Q5VT25-6;Q5VT25-3 (Q5VT25 whole entry): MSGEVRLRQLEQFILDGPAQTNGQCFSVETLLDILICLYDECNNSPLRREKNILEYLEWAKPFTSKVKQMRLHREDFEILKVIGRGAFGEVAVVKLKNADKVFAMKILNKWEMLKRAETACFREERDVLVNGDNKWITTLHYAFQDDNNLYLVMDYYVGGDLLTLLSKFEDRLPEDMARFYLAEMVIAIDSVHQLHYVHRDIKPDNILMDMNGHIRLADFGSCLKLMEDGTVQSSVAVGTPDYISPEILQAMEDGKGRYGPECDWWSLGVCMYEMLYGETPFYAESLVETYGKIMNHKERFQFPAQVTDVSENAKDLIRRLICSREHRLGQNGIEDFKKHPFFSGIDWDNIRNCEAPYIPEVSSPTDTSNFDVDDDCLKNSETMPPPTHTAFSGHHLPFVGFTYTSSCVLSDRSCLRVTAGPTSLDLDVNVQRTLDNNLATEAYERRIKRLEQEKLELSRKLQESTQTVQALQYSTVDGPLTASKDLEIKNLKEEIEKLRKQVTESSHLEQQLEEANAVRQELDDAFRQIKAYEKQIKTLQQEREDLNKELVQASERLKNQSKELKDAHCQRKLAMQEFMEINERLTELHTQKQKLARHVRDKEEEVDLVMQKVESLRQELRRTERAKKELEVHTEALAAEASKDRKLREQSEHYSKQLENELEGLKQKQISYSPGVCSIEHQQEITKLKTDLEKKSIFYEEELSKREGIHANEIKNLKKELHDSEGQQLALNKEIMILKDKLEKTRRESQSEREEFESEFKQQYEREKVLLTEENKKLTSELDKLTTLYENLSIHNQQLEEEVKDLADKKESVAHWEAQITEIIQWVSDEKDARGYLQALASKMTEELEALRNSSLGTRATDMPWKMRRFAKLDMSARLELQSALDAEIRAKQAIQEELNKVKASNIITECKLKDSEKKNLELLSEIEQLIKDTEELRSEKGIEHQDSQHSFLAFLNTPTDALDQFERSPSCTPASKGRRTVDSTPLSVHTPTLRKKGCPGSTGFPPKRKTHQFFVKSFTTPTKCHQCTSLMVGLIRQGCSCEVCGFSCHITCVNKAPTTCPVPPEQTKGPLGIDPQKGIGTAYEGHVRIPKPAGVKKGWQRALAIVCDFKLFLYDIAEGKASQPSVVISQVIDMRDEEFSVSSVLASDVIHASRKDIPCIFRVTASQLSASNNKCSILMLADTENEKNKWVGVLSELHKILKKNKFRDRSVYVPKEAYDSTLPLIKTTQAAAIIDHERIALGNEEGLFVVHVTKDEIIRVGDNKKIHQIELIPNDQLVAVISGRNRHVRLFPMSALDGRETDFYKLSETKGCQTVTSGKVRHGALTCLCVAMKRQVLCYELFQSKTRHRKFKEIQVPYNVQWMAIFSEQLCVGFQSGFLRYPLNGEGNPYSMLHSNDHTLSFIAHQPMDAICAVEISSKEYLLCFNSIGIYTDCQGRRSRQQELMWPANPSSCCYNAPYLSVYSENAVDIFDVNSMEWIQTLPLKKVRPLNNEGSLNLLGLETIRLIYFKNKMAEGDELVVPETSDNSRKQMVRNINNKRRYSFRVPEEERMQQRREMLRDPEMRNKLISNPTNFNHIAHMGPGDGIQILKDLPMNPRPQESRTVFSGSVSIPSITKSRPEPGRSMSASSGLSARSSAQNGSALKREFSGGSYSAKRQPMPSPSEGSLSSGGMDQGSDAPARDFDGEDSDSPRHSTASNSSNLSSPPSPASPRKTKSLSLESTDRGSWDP
Description: as §1

[5] = biological target: CDK10 ; Q15131;Q15131-5;Q15131-2;Q15131-6;Q15131-4;Q15131-3;Q15131-7 (Homo sapiens, UniProt Q15131); assay: biochemical; parameters: species or system AsPC-1; Kinobeads competition pulldown in AsPC-1 lysate with LC-MS/MS label-free quantification; apparent Kd
Description: as §1

[6] = biological target: CLK1 ; P49759-3;P49759;P49759-2 (Homo sapiens, UniProt P49759); assay: biochemical; parameters: species or system AsPC-1; Kinobeads competition pulldown in AsPC-1 lysate with LC-MS/MS label-free quantification; apparent Kd
Chain of CLK1 ; P49759-3;P49759;P49759-2 (P49759 whole entry): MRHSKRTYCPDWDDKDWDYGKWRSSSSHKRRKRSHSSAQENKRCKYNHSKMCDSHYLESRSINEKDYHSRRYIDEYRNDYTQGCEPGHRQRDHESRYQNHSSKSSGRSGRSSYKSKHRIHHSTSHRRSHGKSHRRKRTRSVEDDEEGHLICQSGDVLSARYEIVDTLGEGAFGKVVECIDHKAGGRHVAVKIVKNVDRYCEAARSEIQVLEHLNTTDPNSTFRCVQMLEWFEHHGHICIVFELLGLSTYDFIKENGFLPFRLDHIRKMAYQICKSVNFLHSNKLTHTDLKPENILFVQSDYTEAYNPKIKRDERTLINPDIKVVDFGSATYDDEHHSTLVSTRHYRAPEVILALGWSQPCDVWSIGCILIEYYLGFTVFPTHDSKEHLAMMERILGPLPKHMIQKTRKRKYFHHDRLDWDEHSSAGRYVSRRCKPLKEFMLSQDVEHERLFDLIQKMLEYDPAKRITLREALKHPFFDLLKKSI
Description: as §1

CLK2 ; P49760-3;P49760 = CLK2 ; P49760-3;P49760 (Homo sapiens, UniProt P49760); assay: biochemical; parameters: species or system AsPC-1; Kinobeads competition pulldown in AsPC-1 lysate with LC-MS/MS label-free quantification; apparent Kd
Chain of CLK2 ; P49760-3;P49760 (P49760 whole entry): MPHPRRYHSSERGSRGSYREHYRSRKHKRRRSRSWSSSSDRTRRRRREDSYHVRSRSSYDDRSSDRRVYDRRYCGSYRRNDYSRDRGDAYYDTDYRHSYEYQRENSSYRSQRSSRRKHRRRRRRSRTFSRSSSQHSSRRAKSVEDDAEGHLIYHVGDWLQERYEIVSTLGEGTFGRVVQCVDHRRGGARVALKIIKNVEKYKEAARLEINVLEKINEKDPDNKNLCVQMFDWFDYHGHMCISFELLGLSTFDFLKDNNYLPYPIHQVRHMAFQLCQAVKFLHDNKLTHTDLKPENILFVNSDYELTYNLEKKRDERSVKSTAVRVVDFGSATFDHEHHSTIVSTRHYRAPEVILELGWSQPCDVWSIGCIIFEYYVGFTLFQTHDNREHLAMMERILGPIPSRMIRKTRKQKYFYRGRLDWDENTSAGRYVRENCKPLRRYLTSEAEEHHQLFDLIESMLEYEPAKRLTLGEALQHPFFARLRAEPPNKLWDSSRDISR
Description: as §1

CSNK2A2 ; P19784 = CSNK2A2 ; P19784 (Homo sapiens, UniProt P19784); assay: biochemical; parameters: species or system AsPC-1; Kinobeads competition pulldown in AsPC-1 lysate with LC-MS/MS label-free quantification; apparent Kd
Chain of CSNK2A2 ; P19784 (P19784 whole entry): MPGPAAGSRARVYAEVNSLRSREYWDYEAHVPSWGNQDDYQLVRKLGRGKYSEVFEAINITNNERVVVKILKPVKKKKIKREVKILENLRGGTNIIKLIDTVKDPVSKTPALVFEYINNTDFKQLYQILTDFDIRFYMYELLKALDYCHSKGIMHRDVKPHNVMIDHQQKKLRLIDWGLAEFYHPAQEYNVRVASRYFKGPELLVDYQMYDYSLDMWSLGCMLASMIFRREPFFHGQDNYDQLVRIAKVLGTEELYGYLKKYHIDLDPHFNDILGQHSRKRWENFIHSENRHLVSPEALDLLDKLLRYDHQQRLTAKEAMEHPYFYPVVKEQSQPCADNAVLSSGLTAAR
Description: as §1

TP53RK ; Q96S44 = TP53RK ; Q96S44 (Homo sapiens, UniProt Q96S44); assay: biochemical; parameters: species or system AsPC-1; Kinobeads competition pulldown in AsPC-1 lysate with LC-MS/MS label-free quantification; apparent Kd
Chain of TP53RK ; Q96S44 (Q96S44 whole entry): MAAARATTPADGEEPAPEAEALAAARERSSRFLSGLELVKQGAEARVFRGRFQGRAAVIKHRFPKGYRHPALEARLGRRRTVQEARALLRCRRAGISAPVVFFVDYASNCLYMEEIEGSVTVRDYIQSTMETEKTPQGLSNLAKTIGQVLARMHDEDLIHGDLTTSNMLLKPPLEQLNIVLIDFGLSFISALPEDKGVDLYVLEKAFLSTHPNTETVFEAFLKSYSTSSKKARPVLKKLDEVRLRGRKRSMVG
Description: as §1

RPS6KA1 = test system: RPS6KA1; parameters: method as in Reinecke et al. (2023); settings: RPS6KA1, 5 cell line mix lysate, Kinobeads ε, ref Reinecke et al. (2023), cited from earlier work

Compound: C[C@]12O[C@H](C[C@]1(O)CO)n1c3ccccc3c3c4c(c5c6ccccc6n2c5c31)CNC4=O [Lestaurtinib]
- EC50 (AP2A1): 83.7 nM

Compound: CNCc1ccc(-c2cc(-c3nc(-c4ccc(S(=O)(=O)C(C)C)cc4)cnc3N)on2)cc1 [Berzosertib]
- Kd (PIK3C3 ; Q8NEB9): 9.2 nM
- Kd [1]: 21.4 nM

Compound: Nc1nn2cc(F)cnc2c1C(=O)Nc1cncc(F)c1N1CCC(C(=O)N2CCN(C3COC3)CC2)CC1 [Gartisertib]
- Kd [2]: 10 to 20 nM
- Kd [3]: 23.2 nM
- Kd (AXL ; P30530-2;P30530): 473 nM
- Kd [4]: 15.4 nM
- Kd [5]: 153 nM
- Kd [6]: 70.9 nM
- Kd (CLK2 ; P49760-3;P49760): 303 nM
- Kd (CSNK2A2 ; P19784): 15.1 nM
- Kd (TP53RK ; Q96S44): 113 nM

Compound: COc1cc(N2CCC(N3CCN(C)CC3)CC2)ccc1Nc1ncc(Cl)c(Nc2ccccc2P(C)(C)=O)n1 [Brigatinib]
- EC50 (RPS6KA1): 376 nM
- pKDapp (RPS6KA1): 6.55
- Kd (RPS6KA1; read-out: KDapp): 283 nM
